In patent publication US10729700B2, “Methods and compositions of bile acids and salts for reduction of fat” (priority 2014, dated 2020):
Where two headings read alike, the source gives them in different places.

Tests used:
[1] = tested on: Inguinal fat (subcutaneous fat) pads; test: Ex vivo fat lysis assay (MTT); type: cell-based, diet induced obese mice; details: for ED50 (% w/v); EC50 values of bile salts required to lysis of fat tissues ex vivo: fat tissues of high fat diet mice, 10 minutes, MTT; for effect of increased pH of solution on fat lysis activities: pH 6.0 ˜pH 9.0, bile salt at EC50 in pH 7.4; for fat lysis activities above the pH 9: solutions above the pH 9; for EC50 fold higher than DCA or CDCA, ex vivo: relative to DCA or CDCA
Method: Inguinal fat (subcutaneous fat) pads were excised from diet induced obese mice and chopped to about the same size. 100 mg tissue samples were transferred to 48 well plates and incubated with 350 μl of various concentrations and pH of DCA, CDCA, CA, and phosphate buffer for 10 minutes. 70 μl of MTT solution (5 mg/ml in PBS) was added into each well and incubated for overnight at 37° C. The solution was removed and precipitated formazan product was dissolved in 300 μl of DMSO. Tissue viability was monitored by measuring the optical density at 570 nm (OD570) using a microplate reader.

3T3-L1 adipocytes = test: Cell lysis effect by detergent in vitro (MTT assay); type: cell-based; details: for EC50 (concentration that kills 50% of the cells) / ED50 (% w/v); EC50 values of bile salts required to lysis of adipose cells in vitro: differentiated 3T3-L1 adipocytes; for ED50 (% w/v); EC50 values of bile salts required to lysis of adipose cells in vitro: 1 hour, MTT
Method: To induce adipocyte differentiation, 3T3-L1 pre-adipocytes were seeded in 96-well plate (5×10^3 cells/well) and grown until 2 days post-confluence (day 0) and then treated for 2 days with growth media plus MDI (0.5 μM methylisobutylxanthine, 1 μM dexamethasone and 10 ug/ml insulin; all from Sigma-Aldrich Chemical, St. Louis, Mo., USA), followed by 2 days of treatment with the media containing 10 ug/ml insulin alone. Medium was replaced every 2 days for the following 8 days. Differentiated adipocytes in 96 well plate were washed twice with PBS and incubated in various concentrations of bile salts in serum free DMEM. After 1 hour incubation at 37° C., media were changed and 20 μl of MTT solution (5 mg MTT/ml in PBS) was added into each well and incubated for 1 hour at 37° C. The resultant formazan product was dissolved in 100 μl of DMSO/well and cell viability was determined by measuring the optical density at 570 nm (OD570) using a microplate reader.

[2] = tested on: inguinal fat pads of obese mice; test: Quantitation of in vivo necrotic area (TTC staining) and histology of injected fat pads; details: for tissue lysis effect with higher concentration: necrotic area, FIGS. 12B and 12C
Method: Various concentrations of bile salts (DCA, CDCA, and CA) solutions in 100 μl volume of PBS were injected to the inguinal fat pads of obese mice. Mice were sacrificed at 1 day after the injection. Mouse inguinal fat pads were stained with 2% TTC (Sigma-Aldrich Chemical, St. Louis, Mo., USA) in PBS for 2 hour to identify the non-necrotic and necrotic areas and subsequently immersed in 10% formalin to enhance the contrast. […] The appearance and area of necrotic fat regions were captured and imaged by scanner. The necrotic area of fat pad treated DCA, CDCA, CA, and PBS was calculated by Image J.

[3] = tested on: inguinal fat pad of obese mouse; test: In vivo monitoring of bile salts induced fat loss; details: 1% solutions, 5 times during 2 weeks
rat paws [4] = test: Bile salt-induced paw edema; details: 4 hours after injection; for severity of edema (paw thickness): concentrations and pHs showing similar tissue lysis effects
Method: (§1) Male SD rats (6 weeks old) were purchased from Koatech Co. (Seoul, Korea) and used after 1 week of acclimation. Rats (200˜230 g) were randomly selected and the volume of intact rats paw was measured in all groups using a digital caliper (Bluebird, Seoul, Korea). […] To induce the edema, rats received 100 μl of various bile salts and PBS into the plantar region of the hind foot of rats. Measurements of the paw volume were performed by a caliper immediately before the bile salts injection and 4 hours after injection.

[5] = Stability of bile salts in aqueous solution; details: for Solution stability of bile salt: 1% in 10 mM phosphate buffer; for pH stability: summary, Table 4; for pH in which aqueous solution remained stable: 1% (w/v), 10 mM phosphate buffer, 25° C.
Method: 0.01 g of bile salts (UDCA, DCA, CDCA and CA) were dissolved in 1 ml of phosphate buffer and placed at room temperature for 10 days.

mice skin = test: In vivo monitoring of adverse events on the skin; details: for skin lesions on the injected area: subcutaneous, pH 7.4, 0.5-1.5%
Method: Injections were repeated 1 more times 3 days after first injection. […] The severity of skin lesion was assessed using the following criteria. The total skin severity score was defined as the sum of the individual scores for each of the following character and length of lesion. Length of lesion is determined by measuring the longest diameter of the largest lesion identified. Measured length should involve the lesion only and not cross over clinically normal skin. The length of lesion involvement within each injected site was scored from 0 to 3, where 0=no involvement; 1=<0.2 cm, 2=0.2˜0.5 cm, 3=>0.5 cm of the length of site affected. The character of lesion was scored from 0 to 3, where 0=no lesion present, 1=excoriation only one or one, small punctate crust (<2 mm), 2=multiple, small punctate crusts or coalescing crust (>2 mm), 3=erosion or ulceration.

tails of female ICR mice = test: In vivo monitoring of tissue specific effects of bile salts (tail injection); details: pH 7.4 solution; for skin layers of tails / fat layers of tails: 14 days post-injection; for fat layers of tails: compared to saline
[6] = tested on: inguinal fat pads of obese mice; parameters: Inflammation of injection site: key to the marks not given beside the values; details: mouse, in vivo
rat paws [7] = details: in vivo
Method: as §1

Molecule	EC50 concentrations, ex vivo condition [1] [%]	ED50 (% w/v); EC50 values of bile salts required to lysis of fat tissues ex vivo [1] [% w/v]	effect of increased pH of solution on fat lysis activities [1]	fat lysis activities above the pH 9 [1]	EC50 (concentration that kills 50% of the cells) (3T3-L1 adipocytes) [%]	ED50 (% w/v); EC50 values of bile salts required to lysis of adipose cells in vitro (3T3-L1 adipocytes) [% w/v]	histology of injected area (H & E) [3]	lesions in the administered area of fat tissues [3]	severity of edema (paw thickness) (rat paws [4])	Solution stability of bile salt ([5]; pH 6.5, 25° C.)	Solution stability of bile salt ([5]; pH 6.7, 25° C.)	Solution stability of bile salt ([5]; pH 7.0, 25° C.)	Solution stability of bile salt ([5]; pH 7.2, 25° C.)	Solution stability of bile salt ([5]; pH 7.4, 25° C.)	Solution stability of bile salt ([5]; pH 7.6, 25° C.)	Solution stability of bile salt ([5]; pH 7.8, 25° C.)	Solution stability of bile salt ([5]; pH 8.0, 25° C.)	Solution stability of bile salt ([5]; pH 8.3, 25° C.)	pH stability [5]	pH in which aqueous solution remained stable [5]	further results
C[C@H](CCC(=O)O)[C@H]1CC[C@H]2[C@@H]3[C@H](O)C[C@@H]4C[C@H](O)CC[C@]4(C)[C@H]3CC[C@]12C [CDCA, chenodeoxycholate]	0.0180	0.018	greatly diminishes the fat lysis activities	mostly lost their fat lysis activities	0.060	0.0597	Fibrotic areas	yellowish lesions	slightly lower symptom	Gelaton	Gelation	Gelation	Precipitation	Stable	Stable	Stable	Stable	Stable	<7.4	–	viability of adipocyte cells (3T3-L1 adipocytes; low concentration (below 0.1%)): reduced the viability of adipocyte cells; concentration enough to show similar tissue lysis effect with 1% DCA (pH 8.3) ([2]; CA at pH 7.0, CDCA at pH 7.4): 0.6%; concentration showing similar tissue lysis activity with the injection of 1% DCA ([2]; same pH (pH 7.4)): 1%
C[C@H](CCC(=O)O)[C@H]1CC[C@H]2[C@@H]3[C@@H](O)C[C@@H]4C[C@H](O)CC[C@]4(C)[C@H]3CC[C@]12C [UDCA, ursodeoxycholate]	–	–	–	–	0.25	0.328	–	–	slightly lower symptom	Precipitation	Precipitation	Precipitation	Precipitation	Precipitation	Precipitation	Stable	Stable	Stable	<7.8	< 7.8	histological changes in fat pads (H & E) ([2]; 1.5% solution): Infiltration of polymorphonuclear (PMN) cells into the fat pad tissue was observed; tissue lysis effect with higher concentration [2]: did not increased proportionally; inflammation after injection to subcutaneous fat ([2]; one time injection): severe inflammation
deoxycholate [DCA]	0.0179	0.0179	do not show greatly decreased fat lysis activity	–	0.051	0.0509	Fibrotic areas	yellowish lesions	most severe edema phenotype	Gelation	Gelation	Gelation	Gelation	Gelation	Gelation	Gelation	Gelation	Stable	<8.3	lower than 8.3	skin lesions (mice skin; higher concentrations): Large lesions, erosions and ulcers; skin lesions (mice skin; lowest dose (0.5%)): small punctate lesions; skin lesions on the injected area (mice skin): severe skin lesions; viability of adipocyte cells (3T3-L1 adipocytes; low concentration (below 0.1%)): reduced the viability of adipocyte cells; tissue lysis activity at pH 8.3 compared with pH 7.4 ([2]; necrotic area after injection): lower than the activity of DCA preparation in condition of pH 7.4; skin layers of tails (tails of female ICR mice): not severely damaged; fat layers of tails (tails of female ICR mice): disrupted; damages of muscles in tails (tails of female ICR mice; same concentration of DCA and CA): prominent
C[C@H](CCC(=O)O)[C@H]1CC[C@H]2[C@@H]3C[C@H](O)[C@@H]4C[C@H](O)CC[C@]4(C)[C@H]3CC[C@]12C [HDCA, hyodeoxycholate]	0.0250	0.0250	greatly diminishes the fat lysis activities	–	0.42	0.249	–	–	–	Gelation	Gelation	Gelation	Gelation	Stable	Stable	Stable	Stable	Stable	<7.4	–	EC50 fold higher than DCA or CDCA, ex vivo [1]: 1.4 fold; cell killing effect compared to CA (3T3-L1 adipocytes; similar concentration (0˜1%)): slightly higher cell killing effect compared to CA; tissue lysis effect with higher concentration [2]: did not increased proportionally; Inflammation of injection site [6]: +++; histological changes in fat pads (H & E) [6]: Infiltration of polymorphonuclear (PMN) cells into the fat pad tissue was observed; inflammation after injection to subcutaneous fat [6]: severe inflammation; Adverse event: edema (rat paws [7]): ++; severity of edema (paw thickness) (rat paws [7]): slightly lower symptom
C[C@H](CCC(=O)NCCS(=O)(=O)O)[C@H]1CC[C@H]2[C@@H]3[C@@H](O)C[C@@H]4C[C@H](O)CC[C@]4(C)[C@H]3CC[C@]12C [TUDCA, taurourosodeoxycholate]	–	–	–	–	–	–	–	–	–	–	–	–	–	–	–	–	–	–	–	–	viability of adipocyte cells (3T3-L1 adipocytes; up to 2% concentration): did not reduce the viability of adipocyte cells
C[C@H](CCC(=O)O)[C@H]1CC[C@H]2[C@@H]3[C@H](O)C[C@@H]4C[C@H](O)CC[C@]4(C)[C@H]3C[C@H](O)[C@]12C [CA, cholate]	0.0727	0.0727	greatly diminishes the fat lysis activities	mostly lost their fat lysis activities	0.42	0.42	Fibrotic areas	yellowish lesions	very mild	Precipitation	Precipitation	Stable	Stable	Stable	Stable	Stable	Stable	Stable	<7.0	< 7.0	EC50 fold higher than DCA or CDCA, ex vivo [1]: 4 fold; skin lesions (mice skin; higher dose (1.5%)): Only small punctate lesions; skin damage score (mice skin; highest dose of CA (1.5%) compared to lowest dose of DCA (0.5%)): lower damage score; skin lesions (mice skin; lower doses): no detectable lesions; skin lesions on the injected area (mice skin): significantly less lesions; viability of adipocyte cells (3T3-L1 adipocytes; up to 2% concentration): showed cell killing; concentration enough to show similar necrotic effects with DCA and CDCA ([2]; mouse, in vivo): about two fold higher concentration; concentration enough to show similar tissue lysis effect with 1% DCA (pH 8.3) ([2]; mouse, in vivo): 1.5%; necrotic areas at the same concentration ([2]; mouse, in vivo): smaller than DCA or CDCA; concentration showing similar tissue lysis activity with the injection of 1% DCA ([2]; mouse, in vivo, pH 7.4): about 2%; skin layers of tails (tails of female ICR mice): not severely damaged; fat layers of tails (tails of female ICR mice): disrupted; increment of foot thickness relative to the case of DCA (rat paws [4]): less than one-half
